Measured values reported in publication doi:10.1101/2023.12.04.569845, “Identification of 4-(6-((2-methoxyphenyl)amino)pyrazin-2-yl)benzoic acids as CSNK2A inhibitors with antiviral activity and improved selectivity over PIM3” (bioRxiv, 2023).
Like-named read-outs stand apart in the source and are kept apart here.

Legend:
Assay in all cases: biochemical
Parameters in all cases: Thermal shift (DSF, SYPRO Orange) Tm shift of recombinant kinase domains at 10 uM compound
[1] = molecular target: T1, MARK4 (Homo sapiens, UniProt Q96L34)
T1 sequence (Q96L34 1-752): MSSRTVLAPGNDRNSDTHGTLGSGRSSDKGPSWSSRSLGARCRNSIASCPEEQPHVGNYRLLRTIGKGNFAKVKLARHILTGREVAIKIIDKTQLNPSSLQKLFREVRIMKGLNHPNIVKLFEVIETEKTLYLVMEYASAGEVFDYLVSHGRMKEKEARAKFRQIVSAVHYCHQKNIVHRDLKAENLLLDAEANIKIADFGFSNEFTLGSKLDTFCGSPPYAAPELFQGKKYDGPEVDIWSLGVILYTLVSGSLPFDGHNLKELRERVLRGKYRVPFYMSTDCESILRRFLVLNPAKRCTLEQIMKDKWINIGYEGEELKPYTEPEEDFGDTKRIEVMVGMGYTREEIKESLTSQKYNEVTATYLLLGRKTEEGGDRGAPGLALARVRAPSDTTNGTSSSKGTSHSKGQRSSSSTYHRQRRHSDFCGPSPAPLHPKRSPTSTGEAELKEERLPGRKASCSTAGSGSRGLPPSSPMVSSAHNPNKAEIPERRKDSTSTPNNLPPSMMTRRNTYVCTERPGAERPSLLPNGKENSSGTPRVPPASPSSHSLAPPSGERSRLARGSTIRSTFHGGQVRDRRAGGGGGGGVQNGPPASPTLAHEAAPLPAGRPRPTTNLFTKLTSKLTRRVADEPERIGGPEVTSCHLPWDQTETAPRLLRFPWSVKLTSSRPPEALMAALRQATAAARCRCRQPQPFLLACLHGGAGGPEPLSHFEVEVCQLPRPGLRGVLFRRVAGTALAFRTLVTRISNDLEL

[2] = molecular target: BRD4 (Homo sapiens, UniProt O60885)
[3] = molecular target: T2, DMPK1 (Homo sapiens, UniProt Q09013)
T2 construct: gene DMPK
T2 sequence (Q09013 1-629): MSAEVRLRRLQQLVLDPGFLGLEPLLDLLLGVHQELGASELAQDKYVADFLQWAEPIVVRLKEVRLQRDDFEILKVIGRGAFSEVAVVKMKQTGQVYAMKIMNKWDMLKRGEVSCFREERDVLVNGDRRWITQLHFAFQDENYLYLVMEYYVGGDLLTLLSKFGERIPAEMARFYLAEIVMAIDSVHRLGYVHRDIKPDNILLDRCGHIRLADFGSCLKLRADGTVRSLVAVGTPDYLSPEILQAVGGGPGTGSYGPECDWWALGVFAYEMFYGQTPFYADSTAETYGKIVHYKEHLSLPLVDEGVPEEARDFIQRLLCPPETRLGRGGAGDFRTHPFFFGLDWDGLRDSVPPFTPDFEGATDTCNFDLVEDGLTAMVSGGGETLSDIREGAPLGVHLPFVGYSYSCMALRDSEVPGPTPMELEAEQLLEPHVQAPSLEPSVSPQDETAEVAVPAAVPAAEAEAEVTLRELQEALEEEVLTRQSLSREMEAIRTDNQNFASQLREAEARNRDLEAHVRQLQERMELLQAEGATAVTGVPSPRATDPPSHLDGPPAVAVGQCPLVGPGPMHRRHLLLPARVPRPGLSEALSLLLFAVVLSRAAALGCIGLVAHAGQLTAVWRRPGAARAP

[4] = molecular target: SRC (Homo sapiens, UniProt P12931)
[5] = molecular target: AAK1 (Homo sapiens, UniProt Q2M2I8)
[6] = molecular target: DAPK3 (Homo sapiens, UniProt O43293)
[7] = molecular target: CAMK2B (Homo sapiens, UniProt Q13554)
[8] = molecular target: T3, AurA (Homo sapiens, UniProt O14965)
T3 construct: gene AURKA
T3 sequence (O14965 1-403): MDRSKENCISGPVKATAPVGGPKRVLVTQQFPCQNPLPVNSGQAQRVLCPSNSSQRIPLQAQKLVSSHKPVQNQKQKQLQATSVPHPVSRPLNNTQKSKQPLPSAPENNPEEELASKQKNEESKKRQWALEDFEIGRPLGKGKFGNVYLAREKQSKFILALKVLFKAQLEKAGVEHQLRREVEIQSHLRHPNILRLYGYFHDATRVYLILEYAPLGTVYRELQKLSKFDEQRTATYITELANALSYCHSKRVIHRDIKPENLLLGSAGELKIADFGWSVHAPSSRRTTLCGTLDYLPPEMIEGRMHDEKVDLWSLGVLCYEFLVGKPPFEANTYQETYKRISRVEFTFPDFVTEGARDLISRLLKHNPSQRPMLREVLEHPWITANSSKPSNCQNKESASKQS

[9] = molecular target: T4, OSR1 (Homo sapiens, UniProt O95747)
T4 construct: gene OXSR1

[10] = molecular target: MELK (Homo sapiens, UniProt Q14680)
[11] = molecular target: PAK1 (Homo sapiens, UniProt Q13153)
Chain of PAK1 (Q13153 whole entry): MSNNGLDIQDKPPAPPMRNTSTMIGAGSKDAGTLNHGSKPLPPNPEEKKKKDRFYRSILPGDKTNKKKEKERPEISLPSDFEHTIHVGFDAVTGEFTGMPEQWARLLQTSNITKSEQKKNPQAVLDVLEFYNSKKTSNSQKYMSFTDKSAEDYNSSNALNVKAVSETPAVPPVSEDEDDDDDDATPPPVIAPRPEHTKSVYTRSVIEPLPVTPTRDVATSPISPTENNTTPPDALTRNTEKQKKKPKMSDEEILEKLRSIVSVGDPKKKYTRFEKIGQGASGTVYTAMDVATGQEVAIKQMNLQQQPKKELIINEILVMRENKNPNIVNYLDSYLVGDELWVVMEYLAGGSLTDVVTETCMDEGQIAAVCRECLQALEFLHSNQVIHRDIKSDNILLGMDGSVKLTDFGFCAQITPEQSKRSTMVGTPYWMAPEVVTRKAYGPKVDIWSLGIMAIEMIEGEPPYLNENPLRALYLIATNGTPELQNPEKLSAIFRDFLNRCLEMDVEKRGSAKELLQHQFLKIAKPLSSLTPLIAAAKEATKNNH

Chain of CAMK2B (Q13554 whole entry): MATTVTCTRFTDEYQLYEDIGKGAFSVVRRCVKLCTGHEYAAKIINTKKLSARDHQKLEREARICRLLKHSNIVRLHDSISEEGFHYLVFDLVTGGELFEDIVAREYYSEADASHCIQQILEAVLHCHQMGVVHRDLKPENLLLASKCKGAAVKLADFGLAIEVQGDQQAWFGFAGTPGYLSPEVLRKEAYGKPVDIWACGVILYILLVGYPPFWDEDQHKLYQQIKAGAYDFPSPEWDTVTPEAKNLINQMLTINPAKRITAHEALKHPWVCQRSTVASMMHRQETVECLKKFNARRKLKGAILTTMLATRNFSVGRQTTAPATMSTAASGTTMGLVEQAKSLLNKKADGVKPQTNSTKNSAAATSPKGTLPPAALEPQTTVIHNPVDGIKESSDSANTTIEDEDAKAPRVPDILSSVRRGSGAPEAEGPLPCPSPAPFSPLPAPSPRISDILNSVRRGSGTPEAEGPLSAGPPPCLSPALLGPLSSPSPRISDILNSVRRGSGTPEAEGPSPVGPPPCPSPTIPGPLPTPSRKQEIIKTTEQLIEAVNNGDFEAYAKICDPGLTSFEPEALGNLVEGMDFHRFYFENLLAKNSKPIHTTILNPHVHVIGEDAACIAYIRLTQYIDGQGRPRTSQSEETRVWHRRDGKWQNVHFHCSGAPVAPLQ
T4 sequence (O95747 whole entry): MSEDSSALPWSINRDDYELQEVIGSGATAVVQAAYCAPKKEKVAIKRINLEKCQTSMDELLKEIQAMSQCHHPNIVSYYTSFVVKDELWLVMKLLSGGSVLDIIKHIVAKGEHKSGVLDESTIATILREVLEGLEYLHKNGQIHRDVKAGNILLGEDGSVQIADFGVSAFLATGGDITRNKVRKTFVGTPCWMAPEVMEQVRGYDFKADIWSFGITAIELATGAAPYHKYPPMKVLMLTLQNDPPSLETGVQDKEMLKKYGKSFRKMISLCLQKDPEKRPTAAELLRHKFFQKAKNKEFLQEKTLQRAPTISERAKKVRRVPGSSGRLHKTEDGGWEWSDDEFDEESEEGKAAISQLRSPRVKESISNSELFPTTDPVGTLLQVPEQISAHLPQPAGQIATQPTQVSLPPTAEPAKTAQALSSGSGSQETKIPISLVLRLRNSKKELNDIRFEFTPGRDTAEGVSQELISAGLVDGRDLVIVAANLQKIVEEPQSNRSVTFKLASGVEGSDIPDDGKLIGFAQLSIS
Chain of SRC (P12931 whole entry): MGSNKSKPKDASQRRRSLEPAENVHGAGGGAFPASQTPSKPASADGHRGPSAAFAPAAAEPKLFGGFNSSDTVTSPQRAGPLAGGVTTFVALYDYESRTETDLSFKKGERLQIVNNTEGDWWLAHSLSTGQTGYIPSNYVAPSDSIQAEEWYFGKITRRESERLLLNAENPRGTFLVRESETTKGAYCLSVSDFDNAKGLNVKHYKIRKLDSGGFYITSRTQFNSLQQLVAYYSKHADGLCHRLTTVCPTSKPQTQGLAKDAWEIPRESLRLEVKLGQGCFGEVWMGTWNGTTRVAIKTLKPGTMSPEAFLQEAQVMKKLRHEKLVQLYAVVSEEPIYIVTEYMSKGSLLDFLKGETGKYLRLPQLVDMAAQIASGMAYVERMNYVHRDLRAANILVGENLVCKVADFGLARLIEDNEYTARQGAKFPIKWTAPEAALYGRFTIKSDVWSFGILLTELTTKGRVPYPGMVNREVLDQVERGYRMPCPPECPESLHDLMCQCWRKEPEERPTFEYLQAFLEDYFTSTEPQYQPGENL
Chain of MELK (Q14680 whole entry): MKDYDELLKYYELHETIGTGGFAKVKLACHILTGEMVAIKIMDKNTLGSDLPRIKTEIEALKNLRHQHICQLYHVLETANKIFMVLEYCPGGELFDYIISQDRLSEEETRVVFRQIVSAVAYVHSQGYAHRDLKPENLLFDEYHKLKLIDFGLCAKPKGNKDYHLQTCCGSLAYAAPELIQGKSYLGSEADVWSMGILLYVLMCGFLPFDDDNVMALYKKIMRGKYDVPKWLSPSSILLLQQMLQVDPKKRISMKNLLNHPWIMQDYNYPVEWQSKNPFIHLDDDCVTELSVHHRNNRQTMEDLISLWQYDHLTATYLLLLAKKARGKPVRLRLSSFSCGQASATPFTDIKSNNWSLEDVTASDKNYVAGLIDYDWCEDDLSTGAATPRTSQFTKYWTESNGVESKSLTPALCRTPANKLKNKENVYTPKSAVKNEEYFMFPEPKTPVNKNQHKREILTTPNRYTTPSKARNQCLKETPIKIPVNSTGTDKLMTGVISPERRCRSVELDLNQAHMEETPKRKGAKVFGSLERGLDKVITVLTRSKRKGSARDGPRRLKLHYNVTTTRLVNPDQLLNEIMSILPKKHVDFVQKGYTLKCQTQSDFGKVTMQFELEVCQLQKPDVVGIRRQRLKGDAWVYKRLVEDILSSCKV
Chain of AAK1 (Q2M2I8 whole entry): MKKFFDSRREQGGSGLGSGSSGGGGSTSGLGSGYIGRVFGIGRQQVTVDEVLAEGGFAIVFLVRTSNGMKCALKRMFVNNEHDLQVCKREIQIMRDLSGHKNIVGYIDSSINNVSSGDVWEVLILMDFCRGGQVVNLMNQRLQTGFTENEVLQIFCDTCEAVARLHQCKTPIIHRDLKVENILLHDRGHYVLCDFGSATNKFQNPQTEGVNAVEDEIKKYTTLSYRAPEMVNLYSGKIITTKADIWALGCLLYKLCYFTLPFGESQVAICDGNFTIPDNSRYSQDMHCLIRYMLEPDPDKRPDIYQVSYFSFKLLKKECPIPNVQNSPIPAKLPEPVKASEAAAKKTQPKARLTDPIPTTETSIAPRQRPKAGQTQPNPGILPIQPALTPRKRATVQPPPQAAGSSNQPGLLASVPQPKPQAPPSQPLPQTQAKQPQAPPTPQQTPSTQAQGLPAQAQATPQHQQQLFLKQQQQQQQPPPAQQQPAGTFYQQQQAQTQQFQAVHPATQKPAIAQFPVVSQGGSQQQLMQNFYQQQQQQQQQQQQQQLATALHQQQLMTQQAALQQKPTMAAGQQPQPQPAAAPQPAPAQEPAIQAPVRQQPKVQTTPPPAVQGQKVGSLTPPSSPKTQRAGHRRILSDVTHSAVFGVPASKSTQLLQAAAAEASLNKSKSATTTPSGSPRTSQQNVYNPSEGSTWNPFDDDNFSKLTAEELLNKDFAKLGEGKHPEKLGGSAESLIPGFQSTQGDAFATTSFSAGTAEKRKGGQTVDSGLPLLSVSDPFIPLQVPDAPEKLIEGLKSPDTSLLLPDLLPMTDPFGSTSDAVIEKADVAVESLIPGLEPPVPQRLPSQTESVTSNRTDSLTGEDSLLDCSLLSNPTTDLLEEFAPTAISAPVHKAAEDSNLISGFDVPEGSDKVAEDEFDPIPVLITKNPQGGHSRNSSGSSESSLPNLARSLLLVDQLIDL
Chain of DAPK3 (O43293 whole entry): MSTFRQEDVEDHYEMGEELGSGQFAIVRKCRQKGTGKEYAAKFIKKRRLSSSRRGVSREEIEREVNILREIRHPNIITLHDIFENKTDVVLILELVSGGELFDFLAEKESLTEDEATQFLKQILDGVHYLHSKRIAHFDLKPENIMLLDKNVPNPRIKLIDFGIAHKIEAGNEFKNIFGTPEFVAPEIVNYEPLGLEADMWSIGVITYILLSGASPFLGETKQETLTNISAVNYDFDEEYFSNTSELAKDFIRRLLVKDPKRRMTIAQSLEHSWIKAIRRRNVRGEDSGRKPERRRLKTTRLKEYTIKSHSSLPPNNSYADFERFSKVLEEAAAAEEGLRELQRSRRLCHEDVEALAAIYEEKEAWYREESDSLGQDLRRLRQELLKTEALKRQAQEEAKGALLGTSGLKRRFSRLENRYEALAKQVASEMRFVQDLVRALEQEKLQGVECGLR

SMILES: CC(C)Nc1ccc2cnn(-c3cncc(-c4ccc(C(=O)O)cc4)n3)c2c1 [compound 2, 2]
- ΔTm at 10 µM ([1]; read-out: 2): 1 °C
- ΔTm at 10 µM ([2]; read-out: 2): 2 °C
- ΔTm at 10 µM ([3]; read-out: 2): 0 °C
- ΔTm at 10 µM ([4]; read-out: 2): 3 °C
- ΔTm at 10 µM ([5]; read-out: 2): 7 °C
- ΔTm at 10 µM ([6]; read-out: 2): 16 °C
- ΔTm at 10 µM ([7]; read-out: 2): 2 °C
- ΔTm at 10 µM ([8]; read-out: 2): 10 °C
- ΔTm at 10 µM ([9]; read-out: 2): -1 °C
- ΔTm at 10 µM ([10]; read-out: 2): 6 °C
- ΔTm at 10 µM ([11]; read-out: 2): 1 °C

SMILES: COc1ccc(OC(C)C)cc1Nc1cncc(-c2ccc(C(=O)O)cc2)n1 [7c]
- ΔTm at 10 µM ([1]; read-out: 7c): 0 °C
- ΔTm at 10 µM ([2]; read-out: 7c): 1 °C
- ΔTm at 10 µM ([3]; read-out: 7c): 0 °C
- ΔTm at 10 µM ([4]; read-out: 7c): 3 °C
- ΔTm at 10 µM ([5]; read-out: 7c): 5 °C
- ΔTm at 10 µM ([6]; read-out: 7c): 14 °C
- ΔTm at 10 µM ([7]; read-out: 7c): 1 °C
- ΔTm at 10 µM ([8]; read-out: 7c): 4 °C
- ΔTm at 10 µM ([9]; read-out: 7c): 0 °C
- ΔTm at 10 µM ([10]; read-out: 7c): 4 °C
- ΔTm at 10 µM ([11]; read-out: 7c): -1 °C

SMILES: CC(C)Oc1ccc2ccn(-c3cncc(-c4ccc(C(=O)O)cc4)n3)c2c1 [6c]
- ΔTm at 10 µM ([1]; read-out: 6c): 1 °C
- ΔTm at 10 µM ([2]; read-out: 6c): 2 °C
- ΔTm at 10 µM ([3]; read-out: 6c): 0 °C
- ΔTm at 10 µM ([4]; read-out: 6c): 3 °C
- ΔTm at 10 µM ([5]; read-out: 6c): 6 °C
- ΔTm at 10 µM ([6]; read-out: 6c): 11 °C
- ΔTm at 10 µM ([7]; read-out: 6c): 2 °C
- ΔTm at 10 µM ([8]; read-out: 6c): 8 °C
- ΔTm at 10 µM ([9]; read-out: 6c): -2 °C
- ΔTm at 10 µM ([10]; read-out: 6c): 4 °C
- ΔTm at 10 µM ([11]; read-out: 6c): 0 °C
